# Measurements as given in patent US20060079696A1, “Substituted compounds derived from N-(benzyl)phenylacetamide, preparation and uses” (GENFIT, priority 2004, published 2006).
# Assays:
# hPPARγ = molecular target: T1, hPPARγ (Homo sapiens, UniProt P37231); assay: Gal4-hPPARγ chimera transactivation in COS-7 cells (luciferase); format: cell-based; settings: induction factor standardised to an internal reference, read-out: % hGal4-PPAR transactivation (10 μM) gamma
# T1 construct: fragments of DNA amplified by PCR corresponding to the DEF domains of the human PPARα, PPARγ PPARδ nuclear receptors; expressed in transfected cells; host or cells: COS-7 (monkey kidney fibroblast line)
# T1 sequence (P37231 238-503 limits assumed): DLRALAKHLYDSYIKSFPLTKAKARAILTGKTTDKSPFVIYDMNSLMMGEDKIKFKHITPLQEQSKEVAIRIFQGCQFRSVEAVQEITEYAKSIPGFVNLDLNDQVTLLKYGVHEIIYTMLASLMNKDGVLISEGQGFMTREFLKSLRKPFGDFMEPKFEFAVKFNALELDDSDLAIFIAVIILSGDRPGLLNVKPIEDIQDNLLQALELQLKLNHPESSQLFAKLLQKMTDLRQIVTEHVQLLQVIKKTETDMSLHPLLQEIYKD
# Summary of the method: (§1)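 COS-7 cells transiently transfected with Gal4-DBD/human PPAR DEF-domain chimeras plus Gal4(RE)_TkpGL3 luciferase reporter (1/10 ratio), then exposed 24 h serum-free to compound at 10 μM. Luciferase induction factor over control, normalised to an internal reference per isoform, expressed as percent activation.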
# hPPARδ = molecular target: T2, hPPARδ (Homo sapiens, UniProt Q03181); assay: Gal4-hPPARδ chimera transactivation in COS-7 cells (luciferase); format: cell-based; settings: induction factor standardised to an internal reference, read-out: % hGal4-PPAR transactivation (10 μM) delta
# T2 construct: fragments of DNA amplified by PCR corresponding to the DEF domains of the human PPARα, PPARγ PPARδ nuclear receptors; expressed in transfected cells; host or cells: COS-7 (monkey kidney fibroblast line)
# T2 sequence (Q03181 211-439 limits assumed): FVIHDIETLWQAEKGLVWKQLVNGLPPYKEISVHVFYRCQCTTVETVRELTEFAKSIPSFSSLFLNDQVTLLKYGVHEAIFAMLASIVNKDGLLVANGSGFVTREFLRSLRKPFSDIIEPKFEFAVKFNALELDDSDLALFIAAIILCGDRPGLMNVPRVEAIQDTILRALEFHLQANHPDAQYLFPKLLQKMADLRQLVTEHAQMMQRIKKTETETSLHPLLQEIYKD
# Summary of the method: as §1
# [1] = molecular target: T3, ATP-dependent potassium channels (K+ATP) (Rattus norvegicus, UniProt Q09429); assay: [3H]glibenclamide binding to ATP-dependent potassium channels of rat cerebral cortex; settings: 1 h; 300 nM; specific displacement of [3H]glibenclamide 0.1 nM; read-out: KATP binding (300 nM)
# T3 construct: the potassium channels derive from a rat's cerebral cortex; tissue CEREP; host or cells: rat cerebral cortex
# T3 sequence (Q09429 whole entry): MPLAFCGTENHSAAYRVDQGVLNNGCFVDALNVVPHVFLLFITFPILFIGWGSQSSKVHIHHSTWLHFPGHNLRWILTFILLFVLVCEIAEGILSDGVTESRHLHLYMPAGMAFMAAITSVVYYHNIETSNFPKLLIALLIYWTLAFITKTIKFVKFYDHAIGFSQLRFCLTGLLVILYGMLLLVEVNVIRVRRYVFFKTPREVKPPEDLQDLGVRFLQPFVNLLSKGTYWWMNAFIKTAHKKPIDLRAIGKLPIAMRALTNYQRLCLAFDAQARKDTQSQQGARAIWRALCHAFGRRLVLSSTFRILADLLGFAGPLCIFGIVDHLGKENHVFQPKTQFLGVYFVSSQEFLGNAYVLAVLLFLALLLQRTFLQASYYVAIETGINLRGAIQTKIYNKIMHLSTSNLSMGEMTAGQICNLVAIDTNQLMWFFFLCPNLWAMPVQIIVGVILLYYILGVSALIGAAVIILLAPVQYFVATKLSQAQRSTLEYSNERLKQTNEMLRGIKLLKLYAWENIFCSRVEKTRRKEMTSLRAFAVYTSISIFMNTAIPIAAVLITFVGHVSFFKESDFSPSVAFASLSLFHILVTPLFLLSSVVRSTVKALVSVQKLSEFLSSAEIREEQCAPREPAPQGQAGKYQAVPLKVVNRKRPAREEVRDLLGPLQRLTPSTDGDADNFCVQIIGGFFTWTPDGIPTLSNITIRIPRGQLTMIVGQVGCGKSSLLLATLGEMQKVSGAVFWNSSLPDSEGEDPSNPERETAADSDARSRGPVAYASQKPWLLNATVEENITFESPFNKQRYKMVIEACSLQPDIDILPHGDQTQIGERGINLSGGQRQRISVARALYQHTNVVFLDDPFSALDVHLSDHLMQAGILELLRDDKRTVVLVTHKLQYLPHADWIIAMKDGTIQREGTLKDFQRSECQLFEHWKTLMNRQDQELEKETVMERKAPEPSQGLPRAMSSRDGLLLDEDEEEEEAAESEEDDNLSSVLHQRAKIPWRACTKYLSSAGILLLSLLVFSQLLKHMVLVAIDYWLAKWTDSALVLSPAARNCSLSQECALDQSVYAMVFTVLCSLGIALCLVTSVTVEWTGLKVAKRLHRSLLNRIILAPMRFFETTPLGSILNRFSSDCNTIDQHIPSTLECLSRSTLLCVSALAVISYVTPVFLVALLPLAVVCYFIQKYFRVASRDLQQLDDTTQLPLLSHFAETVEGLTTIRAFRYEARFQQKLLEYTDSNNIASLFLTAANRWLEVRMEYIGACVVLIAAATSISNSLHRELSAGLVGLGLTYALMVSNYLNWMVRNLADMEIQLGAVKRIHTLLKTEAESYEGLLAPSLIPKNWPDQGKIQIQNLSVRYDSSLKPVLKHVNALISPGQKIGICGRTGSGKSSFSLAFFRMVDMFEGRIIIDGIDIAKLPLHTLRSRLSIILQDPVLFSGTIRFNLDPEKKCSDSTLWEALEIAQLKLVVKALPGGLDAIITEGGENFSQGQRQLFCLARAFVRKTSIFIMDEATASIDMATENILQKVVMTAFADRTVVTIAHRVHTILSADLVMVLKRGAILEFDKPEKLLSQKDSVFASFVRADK
# T3 sequence (P70673 whole entry partner): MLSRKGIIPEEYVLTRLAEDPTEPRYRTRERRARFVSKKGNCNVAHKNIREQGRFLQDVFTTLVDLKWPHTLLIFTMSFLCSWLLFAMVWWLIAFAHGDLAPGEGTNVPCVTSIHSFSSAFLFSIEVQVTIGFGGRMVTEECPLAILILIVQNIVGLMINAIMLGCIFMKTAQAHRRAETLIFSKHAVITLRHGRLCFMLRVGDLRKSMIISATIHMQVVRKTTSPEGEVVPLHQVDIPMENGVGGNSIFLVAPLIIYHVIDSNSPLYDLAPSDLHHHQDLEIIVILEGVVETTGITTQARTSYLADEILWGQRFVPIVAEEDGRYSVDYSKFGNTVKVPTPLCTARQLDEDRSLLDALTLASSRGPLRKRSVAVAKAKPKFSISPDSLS
# Summary of the method: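 Rat cerebral cortex membranes incubated 1 h at 22° C with 0.1 nM [3H]glibenclamide; nonspecific binding defined with 1 μM unlabelled glibenclamide. Compounds tested at 3–300 nM; values are percent inhibition of specific binding.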
# [2] = test system: Male Dunkin Hartley guinea pigs; assay: Lipid-lowering effect in guinea pigs on a cholesterol and fat enriched diet; format: in vivo, guinea pig; settings: 200 mpk for 14 days; high fat diet
# Method: The lipid-lowering effect of the inventive compounds was evaluated in vivo in Hartley guinea pigs. In guinea pigs, as in man, a diet enriched in cholesterol and fatty acids induces an increase in the plasmatic levels of lipids. Plasmatic lipid levels (cholesterol and triglycerides) after 14 days treatment were measured and compared to the levels observed for non-treated animals (controls).
# Male Dunkin Hartley guinea pigs (Harlan, Gannat, France) aged 5-6 weeks at the start of the experiment were put in groups of 6 animals selected such that the distribution of their body weight and of their plasmatic lipid levels determined before the experiment were uniform. The guinea pigs were given a diet containing 0.2% cholesterol and 14% fats (Research Diets Inc.-USA). They were kept in a 12 hour/12 hour light/dark cycle at a constant temperature of 20±3° C. and had free access to water and food. The amount of food eaten and the increase in weight were recorded. The compounds tested were suspended in an aqueous carboxymethylcellulose solution (Sigma C4888) at 1% containing 0.1% Tween80 (Sigma P8074) and administered daily by intragastric gavage for 14 days at a dose of 200 mg/kg/day. […]
# The plasmatic concentrations of the lipids (total cholesterol and triglycerides) were measured by enzymatic titrations (bioMérieux-Lyon-France) according to the supplier's recommendations.
smiles,measurement,setting,value
"CCCCC(NC(=O)Cc1ccc(OC(C)(C)C(=O)NS(C)(=O)=O)cc1)c1ccccc1N1CCCCC1 (centres unmarked) [Compound 52, N-[methylsulfonyl]-2-[4-[1-(1-(2-(1-piperidinyl)phenyl)pentyl)aminocarbonylmethyl]phenoxy]-2-methylpropanamide]",activation at 10 µM,hPPARγ,< 10%
same,activation at 10 µM,hPPARδ,< 10%
same,inhibition at 0.3 µM,[1],83%
same,"Cholesterol plasmatic levels, lower than controls",[2],approximately 45%
same,"Triglycerides plasmatic levels, lower than controls",[2],approximately 22%
